Source: patent US5133908A, “Process for the preparation of dispersible colloidal systems of a substance in the form of nanoparticles” (Centre National de la Recherche Scientifique (CNRS), priority 1986, dated 1992)

Legend:
[1] = tested on: human serum albumin (HSA) nanoparticles; assay: level of binding of active principle to HSA nanoparticles, ultracentrifugation; format: physicochemical; conditions: for level of binding of the sodium salicylate to the nanoparticles: of the amount used
Description: (§1) Increasing amounts (from 0.25 g to 2.50 g) of sodium salicylate are added to nanoparticles prepared according to example 1 (HSA) or according to example 5 (BSA). The level of binding of the sodium salicylate to the nanoparticles, measured after ultracentrifugation, is 60% of the amount used, irrespective of the amount of active principle added.
(§2) The procedure uses as in example 1 (1 g of HSA) or of example 5 (1 g of BSA), but carried out in the presence of 0.50 g of sodium salicylate dissolved in phase 1. The mean size of the nanoparticles is 200 nm with a mean dispersion index of 0.5. The level of binding of the sodium salicylate to the nanoparticles, measured after ultracentrifugation, is 60% of the amount used.
(§3) 50 mg of doxorubicin hydrochloride are added to nanoparticles prepared according to example 1 (HSA) or according to example 5 (BSA). The level of binding of doxorubicin to the nanoparticles, measured after ultracentrifugation, is 90% of the quantity used.

[2] = tested on: bovine serum albumin (BSA) nanoparticles; assay: level of binding of active principle to BSA nanoparticles, ultracentrifugation; format: physicochemical; conditions: for level of binding of the sodium salicylate to the nanoparticles: of the amount used
Description: as §1, §2, §3

Row | Structure (SMILES) | level of binding of doxorubicin to the nanoparticles ([1]; HSA nanoparticles, of the quantity used, 50 mg doxorubicin hydrochloride added) [%] | level of binding of doxorubicin to the nanoparticles ([2]; BSA nanoparticles, of the quantity used, 50 mg doxorubicin hydrochloride added) [%] | level of binding of the sodium salicylate to the nanoparticles ([1]; HSA nanoparticles, 0.25 g to 2.50 g added to formed nanoparticles, irrespective of amount) [%] | level of binding of the sodium salicylate to the nanoparticles ([1]; HSA, 0.50 g dissolved in phase 1) [%] | level of binding of the sodium salicylate to the nanoparticles ([2]; BSA nanoparticles, 0.25 g to 2.50 g added to formed nanoparticles, irrespective of amount) [%] | level of binding of the sodium salicylate to the nanoparticles ([2]; BSA, 0.50 g dissolved in phase 1) [%]
1 | COc1cccc2c1C(=O)c1c(O)c3c(c(O)c1C2=O)C[C@@](O)(C(=O)CO)C[C@@H]3O[C@H]1C[C@H](N)[C@H](O)[C@H](C)O1 [doxorubicin] | 90 | 90 | – | – | – | –
2 | O=C([O-])c1ccccc1O.[Na+] [sodium salicylate] | – | – | 60 | 60 | 60 | 60
